Measurements as given in patent US10023593B2, “ALK kinase inhibitor, and preparation method and uses thereof” (BEIJING PEARL BIOTECHNOLOGY LIMITED LIABILITY COMPANY, priority 2014, dated 2018).

Test system: NCI-H2228 cell line
Assay: CellTiter-Glo cell proliferation inhibition on NCI-H2228 cell line
Format: cell-based
Conditions: Homo sapiens, NCI-H2228 cells, 5000 cells/well, 4 days drug treatment
Protocol: 3. Cell Proliferation Inhibitory Activities of the Compounds of the Present Invention on NCI-H2228 Cell Line
? experimental method ? CellTiter-Glo® Luminescent Cell Viability Assay kit from Promega company was used to detect cell proliferation inhibitory activities of the compounds on NCI-H2228 cell line.
? instrument ? Envision 2104 plate reader from PerKinElmer company; Vi-Cell XR cell counter from Beckman Counter company; MCO-18AIC CO2 incubator from SANYO company.
? experiment material ? CellTiter-Glo® Luminescent Cell Viability Assay Kit (Promega company, catalog No. G7573); NCI-H2228 cell line (ATCC, catalog No. CRL-5935); RPMI-1640 medium (HyClone company, catalog No. SH30809.01B); fetal bovine serum (FBS) (Gibco company, catalog No. 10099-141); trypsin (Trypsin) (Gibco company, catalog No. 25200-072); PBS (HyClone company, catalog No. SH30256.01B); 96 wells cell culture plate (Corning company, catalog No. 3610); DMSO (AMRESCO company, catalog No. 0231); 96 wells plates (for diluting compounds) (CITOTEST company, catalog No. Ref36020096D);
? experimental condition ? NCI-H2228 cells in exponential growth phase were collected and treated with trypsin (Trypsin), and viable cells were counted by Vi-Cell XR cell counter. Cell suspension was adjusted to 62500 cells/ml with culture medium (RPMI-1640+10% FBS). 80 μl cell suspension was added into each well of 96 wells cell culture plate so that the final cell number of NCI-H2228 cells was 5000 cells/well. The cells were cultivated in an incubator with an atmosphere of 37° C., 5% CO2 and 95% humidity for 2 hours and then each well was added with 20 μl compounds in RPMI-1640 medium solution (the final concentration of DMSO was 0.5%). 4 days after drug treatment, each well was added with 50 μl CellTiter-Glo solution which was previously thawed and equilibrated to room temperature, and mixed for 2 minutes with microplate shaker. After placing at room temperature for 10 minutes, luminescence value was measured by PerkinElmer Envision 2104 plate reader and the data was analyzed.
? tested samples ? Compounds of the examples.
? data analysis ? Luminescence value of DMSO solvent control (Vvehicle control, which is the mean luminescence value from DMSO solvent control group)
Tested luminescence value (Vsample, which is the luminescence value from given concentration of compounds group) Inhibition rate (%)=(1−Vsample/Vvehicle control)×100
? data processing ? IC50 of compounds was calculated by using XLfit program in Excel.

Structure (SMILES)	IC50 (NCI-H2228, 96 h) [nM]	IC50 (96 h) [nM]
Cc1cc(Nc2ncc(Cl)c(Nc3cn(C)nc3S(=O)(=O)C(C)C)n2)c(OC(C)C)cc1C1CN(C(C)C)C1 [Final product 132]	207	–
Cc1cc(Nc2ncc(Cl)c(Nc3cn(C)nc3S(=O)(=O)C(C)C)n2)c(OC(C)C)cc1C1CN(CCO)C1 [Final product 134]	134	–
Cc1cc(Nc2ncc(Cl)c(Nc3cn(C)nc3S(=O)(=O)C(C)C)n2)c(OC(C)C)cc1C1CCN(CCO)CC1 [Final product 136]	112	–
Cc1cc(Nc2ncc(Cl)c(Nc3cn(C)nc3S(=O)(=O)C(C)C)n2)c(OC2CC2)cc1C1CCCN(CCO)C1 (stereo not drawn) [Final product 139]	90	–
Cc1cc(Nc2ncc(Cl)c(Nc3cn(C)nc3S(=O)(=O)CC(C)C)n2)c(OC2CC2)cc1C1CCCN(CCO)C1 (stereo not drawn) [Final product 140]	105	–
Cc1cc(Nc2ncc(Cl)c(Nc3cn(C)nc3S(=O)(=O)C(C)C)n2)c(OC(C)C)cc1C1CCCN(CCO)C1 (stereo not drawn) [Final product 141]	147	–
COCCN1CCC(c2cc(OC(C)C)c(Nc3ncc(Cl)c(Nc4cn(C)nc4S(=O)(=O)C(C)C)n3)cc2C)CC1 [Final product 142, 5-chloro-N^2-(2-isopropoxy-4-(1-(2-methoxyethyl)piperidin-4-yl)-5-methyl-phenyl)-N^4-(3-(isopropylsulfonyl)-1-methyl-1H-pyrazol-4)-pyrimidin-2,4-diamine]	140	–
Cc1cc(Nc2ncc(Cl)c(Nc3cn(C)nc3S(=O)(=O)C(C)C)n2)c(OC2CCC2)cc1C1CCCN(C(C)(C)CO)C1 (stereo not drawn) [Final product 154]	128	–
Cc1cc(Nc2ncc(Cl)c(Nc3cn(C)nc3S(=O)(=O)C(C)C)n2)c(OC2CC2)cc1C1CCN(C2CCN(C)CC2)CC1 [Final product 158, 5-chloro-N^2-(2-cyclopropoxy-5-methyl-4-(1-(1-methyl-piperidin-4-yl)piperidin-4-yl)phenyl)-N^4-(3-(isopropylsulfonyl)-1-methyl-1H-pyrazol-4-yl)pyrimidin-2,4-diamine]	–	170
Cc1cc(Nc2ncc(Cl)c(Nc3cn(C)nc3S(=O)(=O)CC(C)C)n2)c(OC2CC2)cc1[C@H]1CC[C@@H](N(C)C)CC1 [Final product 175, 5-chloro-N^2-(2-cyclopropoxy4-(4-(dimethylamino)cyclohexyl)-5-methylphenyl)-N^4-(3-(isobutylsulfonyl)-1-methyl-1H-pyrazol-4-yl) pyrimidin-2,4-diamine]	256	–
Cc1cc(Nc2ncc(Cl)c(Nc3cn(C)nc3S(=O)(=O)CC(C)C)n2)c(OC2CC2)cc1[C@H]1CC[C@H](N(C)C)CC1 [Final product 176, 5-chloro-N^2-(2-cyclopropoxy4-(4-(dimethylamino)cyclohexyl)-5-methylphenyl)-N^4-(3-(isobutylsulfonyl)-1-methyl-1H-pyrazol-4-yl) pyrimidin-2,4-diamine]	91	–
Cc1cc(Nc2ncc(Cl)c(Nc3cn(C)nc3S(=O)(=O)CC(C)C)n2)c(OC2CC2)cc1[C@H]1CC[C@@H](NC2CC2)CC1 [Final product 179]	137	–
Cc1cc(Nc2ncc(Cl)c(Nc3cn(C)nc3S(=O)(=O)CC(C)C)n2)c(OC2CC2)cc1[C@H]1CC[C@@H](NC(C)C)CC1 [Final product 181]	106	–
Cc1cc(Nc2ncc(Cl)c(Nc3cn(C)nc3S(=O)(=O)C(C)C)n2)c(OC(C)C)cc1C1CCC(N(C)C)CC1 (stereo not drawn) [Final product 183]	172	–
CCN(CC)[C@H]1CC[C@H](c2cc(OC(C)C)c(Nc3ncc(Cl)c(Nc4cn(C)nc4S(=O)(=O)C(C)C)n3)cc2C)CC1 [Final product 184]	188	–
Cc1cc(Nc2ncc(Cl)c(Nc3cn(C)nc3S(=O)(=O)C(C)C)n2)c(OC(C)C)cc1[C@H]1CC[C@@H](NC2CC2)CC1 [Final product 185]	296	–
Cc1cc(Nc2ncc(Cl)c(Nc3cn(C)nc3S(=O)(=O)C(C)C)n2)c(OC(C)C)cc1[C@H]1CC[C@H](NC2CC2)CC1 [Final product 186]	253	–
Cc1cc(Nc2ncc(Cl)c(Nc3cn(C)nc3S(=O)(=O)C(C)C)n2)c(OC(C)C)cc1[C@H]1CC[C@@H](NC(C)C)CC1 [Final product 187]	111	–
Cc1cc(Nc2ncc(Cl)c(Nc3cn(C)nc3S(=O)(=O)C(C)C)n2)c(OC2CC2)cc1[C@H]1CC[C@@H](N(C)C(C)C)CC1 [Final product 193]	116	–

The next lines start with results.

IC50 (NCI-H2228, 96 h) [nM]	Structure (SMILES)	IC50 (96 h) [nM]
32	CCOc1cc(C2CCN(CCOC)CC2)c(C)cc1Nc1ncc(Cl)c(Nc2cn(C)nc2S(=O)(=O)C(C)C)n1 [Final product 143, 5-chloro-N^2-(2-ethoxy-4-(1-(2-methoxyethyl)piperidin-4-yl)-5-methyl-phenyl)-N^4-(3-(isopropylsulfonyl)-1-methyl-1H-pyrazol-4)-pyrimidin-2,4-diamine]	–
48	COCCN1CCC(c2cc(OC3CCC3)c(Nc3ncc(Cl)c(Nc4cn(C)nc4S(=O)(=O)C(C)C)n3)cc2C)CC1 [Final product 144, 5-chloro-N^2-(2-cyclobutyloxy-4-(1-(2-methoxyethyl)piperidin-4-yl)-5-methyl-phenyl)-N^4-(3-(isopropylsulfonyl)-1-methyl-1H-pyrazol-4)-pyrimidin-2,4-diamine]	–
54	Cc1cc(Nc2ncc(Cl)c(Nc3cn(C)nc3S(=O)(=O)C(C)C)n2)c(OC2CC2)cc1C1CCN(CCF)CC1 [Final product 145, 5-chloro-N^2-[2-cyclopropoxy-4-(1-(2-fluoroethyl)piperidin-4-yl)-5-methylphenyl]-N^4-[1-methyl-3-(isopropylsulfonyl)-1H-pyrazol-4-yl]-pyrimidin-2,4-diamine]	–
41	Cc1cc(Nc2ncc(Cl)c(Nc3cn(C)nc3S(=O)(=O)C(C)C)n2)c(OC2CC2)cc1C1CCN(C(C)(C)CO)CC1 [Final product 147, 2-(4-(4-(5-chloro-4-(3-(isopropylsulfonyl)-1-methyl-1H-pyrazol-4-amino)pyrimidin-2-amino)-5-cyclopropoxy-2-methylphenyl)piperidin-1-yl)-2-methyl-1-propanol]	–
44	Cc1cc(Nc2ncc(Cl)c(Nc3cn(C)nc3S(=O)(=O)C(C)C)n2)c(OC2CC2)cc1C1CCCN(C(C)(C)CO)C1 (stereo not drawn) [Final product 148]	–
57	Cc1cc(Nc2ncc(Cl)c(Nc3cn(C)nc3S(=O)(=O)CC(C)C)n2)c(OC2CC2)cc1C1CCN(C(C)(C)CO)CC1 [Final product 149]	–
43	CCOc1cc(C2CCN(C(C)(C)CO)CC2)c(C)cc1Nc1ncc(Cl)c(Nc2cn(C)nc2S(=O)(=O)C(C)C)n1 [Final product 150]	–
70	CCOc1cc(C2CCCN(C(C)(C)CO)C2)c(C)cc1Nc1ncc(Cl)c(Nc2cn(C)nc2S(=O)(=O)C(C)C)n1 (stereo not drawn) [Final product 151]	–
60	Cc1cc(Nc2ncc(Cl)c(Nc3cn(C)nc3S(=O)(=O)C(C)C)n2)c(OC2CCC2)cc1C1CCN(C(C)(C)CO)CC1 [Final product 153]	–
75	Cc1cc(Nc2ncc(Cl)c(Nc3cn(C)nc3S(=O)(=O)C(C)C)n2)c(OC2CC2)cc1C1CCN(CC(=O)N(C)C)CC1 [Final product 155, 2-(4-(4-(5-chloro-4-(3-(isopropoxysulfonyl)-1-methyl-1H-pyrazol-4-yl-amino)pyrimidin-2-yl-amine)-5-cyclopropoxy-2-methylphenyl)piperidin-1-yl)-N,N-dimethylacetamide]	–
73	CCN(CC)[C@H]1CC[C@@H](c2cc(OC3CC3)c(Nc3ncc(Cl)c(Nc4cn(C)nc4S(=O)(=O)CC(C)C)n3)cc2C)CC1 [Final product 177]	–
